Measurements published in patent publication US20240083857A1, “2-Methyl-Quinazolines” (Bayer Pharma Aktiengesellschaft, priority 2017, published 2024).

Tests used:
[1] = target: K-Ras^G12C : hSOS1 interaction (Homo sapiens, UniProt Q07889); experiment: Biochemical assay 1: K-Ras^G12C interaction assay with hSOS1 (HTRF); assay type: binding; settings: read-out: Assay 1 (KRAS-SOS Interaction) activity expressed as IC50
[2] = target: human SOS1 (loading of human K-Ras^G12C-GDP with fluorescent GTP-analog) (Homo sapiens, UniProt Q07889); experiment: Biochemical assay 3: K-Ras^G12C activation assay by hSOS1 (HTRF); settings: no GTP; for IC50: read-out: Assay 3 (KRAS-Activation by SOS no GTP) activity expressed as IC50; for inhibition at 20 µM: read-out: Assay 3 (KRAS-Activation by SOS no GTP) activity expressed as % inhibition at 20 μM

Compound	IC50 [1] [µM]	IC50 [2] [µM]	inhibition at 20 µM [2] [%]
COc1cc2nc(C)nc(NC(C)c3ccc(-c4cnc5n4CCC5)s3)c2cc1OC (single isomer, unassigned; enantiomer 1) [Example 328, N-{1-[5-(6,7-dihydro-5H-pyrrolo[1,2-a]imidazol-3-yl)thiophen-2-yl]ethyl}-6,7-dimethoxy-2-methylquinazolin-4-amine, Enantiomer 1]	0.142	0.669	
COc1cc2nc(C)nc(NC(C)c3cccc4scnc34)c2cc1OC (centres unmarked) [Example 14, N-[1-(1,3-benzothiazol-4-yl)ethyl]-6,7-dimethoxy-2-methylquinazolin-4-amine]	0.666	1.83	
COc1cc2nc(C)nc(NC(C)c3cc(C)cc4[nH]ncc34)c2cc1OC (centres unmarked) [Example 16, 6,7-dimethoxy-2-methyl-N-[1-(6-methyl-1H-indazol-4-yl)ethyl]quinazolin-4-amine]	3.25	8.17	
COc1cc2nc(C)nc(NC(C)c3ccc(-c4ccc(Cl)cc4CN(C)C)s3)c2cc1OC (centres unmarked) [Example 323, N-[1-(5-{4-chloro-2-[(dimethylamino)methyl]phenyl}thiophen-2-yl)ethyl]-6,7-dimethoxy-2-methylquinazolin-4-amine]	0.0395	0.0664	
COc1cc2nc(C)nc(NC(C)c3ccc(-c4ccccc4CNc4ccccn4)s3)c2cc1OC (centres unmarked) [Example 301, 6,7-di methoxy-2-methyl-N-[1-(5-{2-[(pyridin-2-ylamino)methyl]phenyl}thiophen-2-yl)ethyl]quinazolin-4-amine]	0.799	1.93	
COc1cc2nc(C)nc(NC(C)c3cc(Br)cs3)c2cc1OC (centres unmarked) [Example 264, N-[1-(4-bromothiophen-2-yl)ethyl]-6,7-dimethoxy-2-methylquinazolin-4-amine]	5.94	4.61	
COc1cc2nc(C)nc(NC(C)c3ccc(-c4ccccc4CNCC(=O)N4CCc5ccccc5C4)s3)c2cc1OC (centres unmarked) [Example 303, 1-(3,4-dihydroisoquinolin-2(1H)-yl)-2-{[2-(5-{1-[(6,7-dimethoxy-2-methylquinazolin-4-yl)amino]ethyl}thiophen-2-yl)benzyl]amino}ethanone]	0.724	0.88	
COc1cc2nc(C)nc(NC(C)c3cncc4sccc34)c2cc1OC (centres unmarked) [Example 332, 6,7-dimethoxy-2-methyl-N-[1-(thieno[2,3-c]pyridin-4-yl)ethyl]quinazolin-4-amine]	2.25	11.4	
COc1cc2nc(C)nc(NC(C)c3ccc4c(c3)OCCO4)c2cc1OC (centres unmarked) [Example 19, N-[1-(2,3-dihydro-1,4-benzodioxin-6-yl)ethyl]-6,7-dimethoxy-2-methylquinazolin-4-amine]	7.78		44
COc1cc2nc(C)nc(NC(C)c3ccc(-c4cccc(CN)c4)s3)c2cc1OC (centres unmarked) [Example 265, N-[1-{5-[3-(aminomethyl)phenyl]thiophen-2-yl}ethyl]-6,7-dimethoxy-2-methylquinazolin-4-amine]	2.77	1.11	
COc1cc2nc(C)nc(NC(C)c3ccc(-c4cccc5sc(C(N)=O)c(N)c45)s3)c2cc1OC (centres unmarked) [Example 278, 3-amino-4-(5-{1-[(6,7-dimethoxy-2-methylquinazolin-4-yl)amino]ethyl}thiophen-2-yl)-1-benzothiophene-2-carboxamide]	12.5		43
COc1cc2nc(C)nc(NC(C)c3ccc(-c4ccc(CN)s4)s3)c2cc1OC (centres unmarked) [Example 276, N-{1-[5′-(aminomethyl)-2,2′-bithiophen-5-yl]ethyl}-6,7-dimethoxy-2-methylquinazolin-4-amine]	1.41	2.16	
CNCc1ccccc1-c1cccc([C@@H](C)Nc2nc(C)nc3cc(OC)c(OC)cc23)c1 [Example 268, 6,7-dimethoxy-2-methyl-N-[(1R)-1-{2′-[(methylamino)methyl]biphenyl-3-yl}ethyl]quinazolin-4-amine]	0.166	0.189	
COc1cc2nc(C)nc(N[C@H](C)c3cccc(-n4ccnc4)c3)c2cc1OC [Example 340, N-{(1R)-1-[3-(1H-imidazol-1-yl)phenyl]ethyl}-6,7-dimethoxy-2-methylquinazolin-4-amine]	0.344	1.39	
COc1cc2nc(C)nc(NC(C)c3ccc(-c4cc(C)n(C)c4C#N)s3)c2cc1OC (centres unmarked) [Example 286, 3-(5-{1-[(6,7-dimethoxy-2-methylquinazolin-4-yl)amino]ethyl}thiophen-2-yl)-1,5-dimethyl-1H-pyrrole-2-carbonitrile]	16.7		36
COc1cc2nc(C)nc(NC(C)c3ccc(-c4ccc(F)cc4CNCc4nccn4C)s3)c2cc1OC (centres unmarked) [Example 304, N-[1-{5-[4-fluoro-2-({[(1-methyl-1H-imidazol-2-yl)methyl]amino}methyl)phenyl]thiophen-2-yl}ethyl]-6,7-dimethoxy-2-methylquinazolin-4-amine]	0.417	0.399	
